From PMC10454396 (International Journal of Molecular Sciences, 2023)
In brackets after ≈: the same amount, converted by molar mass.

Assays:
[1] = tested on: Staphylococcus aureus Newman WT; assay: MIC, broth microdilution, S. aureus Newman wild type; assay type: cell-based; details: Staphylococcus aureus; S. aureus Newman WT, MHB2 broth microdilution; read-out: MIC
Description: Cefazolin was obtained from Acros Organics. Ciprofloxacin hydrochloride, linezolid and vancomycin hydrochloride were obtained from Sigma-Aldrich (St. Louis, MO, USA). Tetracycline hydrochloride was obtained from Alfa Aesar. Sorangicin A was provided by HZI, Braunschweig. Stock solutions were prepared in Milli-Q water or dimethyl sulfoxide (DMSO, Sigma-Aldrich). Minimum inhibitory concentrations (MICs) were determined in cation-adjusted Mueller-Hinton broth (MHB2) using the broth microdilution method as recommended by the Clinical and Laboratory Standards Institute (CLSI). The MIC was defined as the lowest concentration of the antibiotic causing complete inhibition of visible growth of the microorganism (CLSI, 2017).
1. In vitro characterization of mCherry expressing Staphylococcus aureus Newman
1.1 Minimum inhibitory concentration
Table S1. Antibiotic susceptibility profile of Staphylococcus aureus Newman. WT: wild type. […]

[2] = tested on: mCherry-expressing S. aureus Newman; assay: Zebrafish embryo model of S. aureus yolk infection, antibiotic treatment efficacy; assay type: in vivo, Staphylococcus aureus
Description: With the aim to study the in vivo efficacy of drugs, 30 hpf zebrafish embryos were infected with 50 CFU of mCherry-expressing S. aureus Newman. Embryos were then left to recover from injection for two hours and subsequently treated with various reference antibiotics. Antibiotic treatment was performed via bath water immersion as well as via microinjection into the yolk (local treatment) and the caudal vein (systemic treatment) to study whether differences in in vivo activity exist between the three administration routes. Survival was assessed daily until 120 hpf. Additionally, the infection was visualized and quantified by means of fluorescence microscopy at 24 h post treatment (hpt). At the end of every experiment, living embryos (and dead embryos, if possible) were homogenized to determine the remaining bacterial count. Five approved antibiotics from different classes were assessed in vivo. The chosen drugs ought to differ in physicochemical properties, such as molecular weight and polarity, in order to detect a pattern between successful administration routes and the physicochemical properties of the drug. Prior to efficacy assessment, drug-mediated toxicity in zebrafish embryos was investigated using the same administration routes (Figure S3). For microinjection, a fixed dose of 20 to 30 mg/kg was used for each antibiotic. The concentration for bath water immersion was based on the minimum inhibitory concentration (MIC) and the maximum tolerated concentration (MTC) of the drug, whereby it is generally recommended to use 50- to 100-fold the antibacterial MIC to see a positive effect.
Pulled glass capillaries for microinjection (Table S2) were prepared using a micropipette puller (P-1000, Sutter Instrument). Dechorionated and anaesthetized embryos were infected with 50 colony-forming units (CFU) of mCherry-expressing S. aureus Newman by microinjection into the yolk sac at 30 hpf. In order to confirm bacterial numbers, an equal volume of bacterial cells was ejected onto Tryptic Soy Agar (TSA) supplemented with 10 µg/mL chloramphenicol before and after the injection. Antibiotic treatment was performed two hours post infection (hpi) via three different administration routes, namely bath water immersion and microinjection into the yolk sac as well as the caudal vein (CV). The infection procedure and treatment of infected embryos are described in details in the supplementary materials (Table S3).
Embryos were transferred individually to microcentrifuge tubes and washed at least three times with sterile PBS. 200 µL of sterile PBS were added and embryos were mechanically homogenized using a micropestle (Carl Roth, Karlsruhe, Germany). 800 µL of sterile PBS were added to reach a final volume of 1 mL. The homogenates were diluted and plated on tryptic soy agar (TSA). CFU counts were determined after 24 h of incubation at 37 °C.
Embryos were placed in a black 96-well plate (Falcon; Thermo Fisher, Dreieich, Germany) and cryo-anaesthetized by submersion into ice water. Images for quantitative fluorescence analysis were acquired using the following equipment: a fluorescence stereo microscope (M205 FA, Leica Microsystems, Wetzlar, Germany) in combination with a fluorescence illuminator (X-Cite, 200DC, Excelitas Technologies, Waltham, MA, USA) and a microscope camera (DFC7000 T, Leica Microsystems). Quantification of fluorescence was performed using Fiji ImageJ version 2.1.0. Fluorescent Integrated Density (FID) was determined by counting the number of pixels with fluorescence intensity greater than the threshold (10) and multiplying the count with its mean intensity. For confocal imaging, embryos were anaesthetized through immersion in tricaine (945 µM, Sigma-Aldrich) and immobilized in 1.2% low-melting agarose in a flat-bottom 96-well plate. Confocal images and time-lapse series were acquired using the Celldiscoverer 7 with LSM 900 (Zeiss) together with the 5×/0.35 Plan-APOCHROMAT objective.
2. […]

zebrafish embryos = assay: Toxicity of antimicrobials on zebrafish embryos; assay type: in vivo, Danio rerio; details: bath water immersion 50x MIC, no bacteria recovered from dead embryos
Description: Toxicity of antibiotics was assessed by aquatic exposure and microinjection. For evaluation of the maximum tolerated concentration (MTC) by aquatic exposure, embryos were dechorionated at 30 hpf and placed in a flat-bottom 96-well plate (Sarstedt) with one embryo per well. Excess medium was removed and 150 µL of compound dilutions (in 0.3× Danieau’s, maximum of 1% DMSO) were added. For each antibiotic, a range of concentrations was investigated. Ten embryos were used per concentration and ten additional embryos incubated in fish medium without any antibiotic served as negative control. Microinjection of antibiotics into the caudal vein (CV) and the yolk sac was performed as described earlier. PBS-injected embryos served as negative control. Exposed embryos were maintained at 28 °C throughout the whole experiment. Embryos were monitored daily under a stereo microscope (Stemi 508, Zeiss) in order to record survival as well as anomalies, pigmentation, heartbeat and locomotor responses. An embryo was considered dead when no heart beat could be observed.

With CC(=O)NC[C@H]1CN(c2ccc(N3CCOCC3)c(F)c2)C(=O)O1 [linezolid] the MIC [1] was 2 µg/mL (≈ 5.93 µM), the “bacterial fluorescence (FID) at 24 hpt” value ([2]; bath water immersion) was “No fluorescence was recorded” and the “effect on survival of infected embryos” value ([2]; bath water immersion 50-100x MIC) was “significantly (p < 0.0001) prolonged the survival”. For the same compound, the “recovery from infection (fluorescence microscopy and CFU plating)” value ([2]; bath water immersion 50x MIC) was “full recovery from infection”, the survival ([2]; bath water immersion, treatment 2 hpi, 50 CFU yolk infection, until 120 hpf) was 90% and the “bacterial fluorescence (FID) at 24 hpt” value ([2]; caudal vein microinjection) was “No fluorescence was recorded”. For the same compound, the “effect on survival of infected embryos” value ([2]; caudal vein microinjection 20-30 mg/kg, 2 hpi) was “significantly (p < 0.0001) prolonged the survival”, the mortality rate ([2]; yolk and caudal vein injection 2 hpi, 50 CFU yolk infection) was “greater than 75%” and the bacterial numbers ([2]; yolk and caudal vein injection, embryos with lethal infection) was “exceeding 10^5 CFU/embryo”. The “bacterial fluorescence (FID) at 24 hpt” value ([2]; yolk microinjection) was “No fluorescence was recorded”, the “effect on survival of infected embryos” value ([2]; yolk microinjection 20-30 mg/kg, 2 hpi) was “significantly (p < 0.0001) prolonged the survival” and the “cause of death of embryos in immersion group” value (zebrafish embryos) was “potential toxic effect”.
